Test results published in article PMC6381024, “Probing Anti-inflammatory Properties Independent of NF-κB Through Conformational Constraint of Peptide-Based Interleukin-1 Receptor Biased Ligands” (Frontiers in Chemistry, 2019).

Tests used:
IL-6 = assay: qPCR of IL-1β-induced IL-6 expression in HEK-Blue IL-33/IL-1β cells; type: cell-based, human; parameters: key to qPCR IL-6 (heatmap grade of inhibition): 0: No effect; No effect 01234 Maximum inhibition/efficacy; No effect 01234 Maximum inhibition/efficacy; No effect 01234 Maximum inhibition/efficacy; 4: Maximum inhibition/efficacy; conditions: for qPCR IL-6 (heatmap grade of inhibition): HEK-Blue cells, peptide 10^-6 M or Kineret 1.0 mg/mL 30 min, then IL-1β 100 ng/mL 4 h (legend: overnight); for Suppression of IL-6 transcription: HEK blue cells, 10^-6 M pre-treatment, IL-1β stimulation
Method: HEK-Blue IL-33/IL-1β cells were purchased from InvivoGen (San Diego, CA) and used at passages under 15. HEK-Blue cells were cultured in DMEM growth medium supplemented with 10% serum, 50 U/mL penicillin, […] streptomycin, […] zeocin, and […] hygromycin. Cells were grown in regular conditions (37°C, 5% CO2). Cells were serum starved overnight and treated with 100 ng/mL IL-1β for 4 h. Cells were pre-incubated for 30 min with peptides 1, 5, or 6 (10^−6M) or Kineret (1.0 mg/mL) prior to the experiments to reach equilibrium (n = 4 each treatment). Cells were harvested and incubated for 5 min in RIBOzol (AMRESCO). RNA was extracted according to manufacturer's protocol and RNA concentration and integrity were measured with a NanoDrop 1,000 spectrophotometer. A total of 500 ng RNA was used to synthetize cDNA using iScript Reverse Transcription SuperMix (Bio-Rad, Hercules, CA). Quantitative gene expression analysis was performed on Stratagene MXPro3000 (Stratagene) with SYBR Green Master Mix (Bio-Rad). Gene expression levels were normalized to 18S universal primer (Ambion Life Technology, Burlington ON, Canada). Genes analyzed include IL1β, IL6, and PTGHS2 [Prostaglandin H synthetase 2 or cyclooxygenase-2 (COX-2)]. Data are representative of 3 experiments (each with n = 4 per treatment group).
Figure 8 The effects of peptides 1, 5, and 6 on the expression of pro-inflammatory genes. HEK-Blue cells were pre-treated with peptides 1, 5, and 6 as above and stimulated with IL-1β overnight. qPCR was performed on cell lysates using 18S rRNA as internal control. Graphs are sorted in columns by gene of interest (COX-2, IL-1β, or IL-6) and rows by peptide configuration [(3R) or (3S)]. Results are representative of an average of 3 independent experiments (each with n = 4 per treatment group) and are expressed as a fold-change of the non-stimulated control: ^*p < 0.05, ^**p < 0.01, ^***p < 0.001, ^****p < 0.0001 compared to group treated only with IL-1β. Treatment groups that are not labeled with asterisks are statistically non-significant compared to group treated only with IL-1β.

p38 MAPK = assay: IL-1β-induced p38 MAPK phosphorylation, Western blot in RAW Blue cells; type: cell-based; parameters: key to Western Blot p38 (heatmap grade of inhibition): 0: No effect; No effect 01234 Maximum inhibition/efficacy; No effect 01234 Maximum inhibition/efficacy; No effect 01234 Maximum inhibition/efficacy; 4: Maximum inhibition/efficacy; conditions: for Western Blot p38 (heatmap grade of inhibition): RAW Blue cells, peptide 10^-6 M or Kineret 1.0 mg/mL 30 min, then IL-1β 100 ng/mL 15 min; for Inhibition of IL-1β-induced p38 phosphorylation: RAW-blue cells, 10^-6 M, 30 min, then IL-1β 15 min
Method: RAW Blue cells (Invivogen) were grown under standard conditions (37°C, 5% CO2) and maintained under passage number 15. Cells were equilibrated with 1, 5, or 6 (10^−6M) or Kineret (1.0 mg/mL) for 30 min, after which time they were exposed to IL-1β (100 ng/mL) for 15 min. Cells were harvested and lysed on ice for 30 min using a radioimmunoprecipitation assay buffer (Cell Signaling) supplemented with 1 mM phenylmethylsulfonyl fluoride (PMSF) and cOmplete™ EDTA-free protease inhibitor cocktail (Roche, Mannheim, Germany, prepared according to the manufacturer's instructions). Protein concentrations were determined using a Bradford protein assay (Bio-Rad) on 96-well plates with a microplate reader (EnVision Multilabel reader) measuring OD at […]. Bovine serum albumin serial dilutions were used to generate a standard curve. Lysates were then mixed with 4X reducing sample buffer (Bio-Rad).
Lysates were loaded (30 μg protein per well) in a 5% acrylamide stacking gel, and samples were electrophoresed in a 12% acrylamide resolving gel for 1.5 h at 120 V, followed by a 1 h transfer onto polyvinylidene difluoride (PDVF) membranes at 100 V. Membranes were blocked and incubated with 1:1,000 dilution of primary antibody and 1:20,000 dilution of secondary antibodies according to the manufacturer's instructions. Antibodies used were for phospho-p38 MAPK (Cell Signaling, #9211), p38 MAPK (Cell Signaling, #9212), SAPK/JNK (Cell Signaling, #9252), phospho-SAPK/JNK (Cell Signaling, #9251), ROCK2 (Thermo Fisher Scientific PA5-21131), phospho-ROCK2 (Thermo Fisher Scientific PA5-34895), and goat anti-rabbit conjugated to horseradish peroxidase (Abcam, ab6721). Membranes were imaged using an Amersham Imager 600 (GE Healthcare) using Clarity Western ECL Substrate (Bio-Rad). The intensity of protein bands was quantified using ImageJ and standardized using total (phosphorylated + non-phosphorylated) protein content. Data are representative of three independent experiments.
Figure 7 The effects of peptides 1, 5, and 6 on IL-1β-induced phosphorylation of JNK, ROCK2, and p38. Graphical representations of band density analysis of Western Blots, sorted into columns based on protein of interest (JNK, ROCK2, or p38) and rows by peptide configuration [(3R-) or (3S)]. RAW-blue cells were pretreated with peptides 1, 5, 6, Kineret, or vehicle for 30 min and then stimulated with IL-1β for 15 min. Images of representative Western Blots can be found in the Supplementary Figure 1. Results shown are the average of 3 independent experiments: ^*p < 0.05, ^**p < 0.01, ^***p < 0.001, ^****p < 0.0001 compared to group treated only with IL-1β. Treatment groups that are not labeled with asterisks are statistically non-significant compared to group treated only with IL-1β.

Row | Substance | qPCR IL-6 (heatmap grade of inhibition) (IL-6) | Western Blot p38 (heatmap grade of inhibition) (p38 MAPK) | Inhibition of IL-1β-induced p38 phosphorylation (p38 MAPK) | Suppression of IL-6 transcription (IL-6)
1 | H-D-Arg-D-Tyr-(3R,4R)-Hgl-(S)-Val-D-Glu-D-Leu-D-Ala-NH2 [[(3R,4R)-Hgl^3-(S)-Val^4]-1] | 4 | 3 |  | 
2 | H-D-Arg-D-Tyr-(3R,4R)-Hgl-D-Val-D-Glu-D-Leu-D-Ala-NH2 [[(3R,4R)-Hgl^3]-1] | 4 | 0 | inactive | 
3 | H-D-Arg-D-Tyr-(3R,4S)-Hgl-(S)-Val-D-Glu-D-Leu-D-Ala-NH2 [[(3R,4S)-Hgl^3-(S)-Val^4]-1] | 2 | 2 |  | 
4 | H-D-Arg-D-Tyr-(3R,4S)-Hgl-D-Val-D-Glu-D-Leu-D-Ala-NH2 [[(3R,4S)-Hgl^3]-1] | 4 | 4 | inhibited most effectively | 
5 | H-D-Arg-D-Tyr-(3S,4R)-Hgl-D-Val-D-Glu-D-Leu-D-Ala-NH2 [[(3S,4R)-Hgl^3]-1] | 4 | 3 |  | 
6 | H-D-Arg-D-Tyr-(R)-Agl-(S)-Val-D-Glu-D-Leu-D-Ala-NH2 [[(3R)-Agl^3-(S)-Val^4]-1] | 1 | 4 | inhibited most effectively | ability to suppress the transcription of all three genes was lost
7 | H-D-Arg-D-Tyr-(R)-Agl-D-Val-D-Glu-D-Leu-D-Ala-NH2 [[(3R)-Agl^3]-1] | 3 | 0 | inactive | 
8 | H-D-Arg-D-Tyr-(S)-Agl-(S)-Val-D-Glu-D-Leu-D-Ala-NH2 [[(3S)-Agl^3-(S)-Val^4]-1] | 1 | 2 |  | ability to suppress the transcription of all three genes was lost
9 | H-D-Arg-D-Tyr-(S)-Agl-D-Val-D-Glu-D-Leu-D-Ala-NH2 [[(3S)-Agl^3]-1] | 2 | 0 | inactive | 
10 | H-D-Arg-D-Tyr-D-Thr-D-Val-D-Glu-D-Leu-D-Ala-NH2 [Peptide 1] | 4 | 4 | inhibited the effects of all three kinases | strong suppression of transcription of all three genes
11 | Kineret: FDA-approved recombinant IL-1 receptor antagonist | 4 | 4 |  | 
